Counter-ions that a name gives are not always drawn.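 Cells were grown in 96-well plates and exposed to each compound for 48 hours at five concentrations; endpoints were interpolated linearly between bracketing concentrations, or set to the highest concentration if not reached. The concentration for 50% growth inhibition is given as GI50.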 Activity calls are given as the source filed them. Cut-off read from the data, not from the text of the source: active = GI50 up to about 1.1 µM and inactive = higher.

Among the test systems are UACC-257; U-251; NCI-H226; Malme-3M; SK-MEL-28; RPMI-8226; CCRF-CEM; SF-539; NCI-H460; CAKI-1; SK-OV-3; OVCAR-5; SW-620; SNB-75; HT-29; UACC-62; NCI-H522; SR.
Test in all cases: growth of human tumour cells (NCI), 48 h

As for `O=C1CCC(=O)C1=NNc1cc(Cl)cc(Cl)c1`, the GI50 with UACC-257 is > 100 µM (inactive); in the assay with U-251 it was 69.2 µM (inactive); in the assay on NCI-H226, > 100 µM (inactive); with Malme-3M, > 100 µM (inactive); in the assay with SK-MEL-28, > 100 µM (inactive); in the assay on RPMI-8226 it was 32.7 µM (inactive). Further, the GI50 is 47.8 µM (inactive) in the assay with CCRF-CEM; > 100 µM (inactive) in the assay with SF-539; 71.8 µM (inactive) in the assay with NCI-H460; > 100 µM (inactive) with CAKI-1; > 100 µM (inactive) in the assay on SK-OV-3; > 100 µM (inactive) with OVCAR-5. The GI50 in the assay on SW-620, with SNB-75, in the assay on HT-29 and in the assay on UACC-62 was > 100 µM (inactive) in each case.
`O=C(Nc1ccccc1[N+](=O)[O-])/C(=N/Nc1cccc(Cl)c1)c1c(O)c2ccccc2oc1=O`: the GI50 in the assay on UACC-257 was 41.2 µM (inactive); with NCI-H226, > 100 µM (inactive); in the assay on Malme-3M, 97.9 µM (inactive); with SK-MEL-28, > 100 µM (inactive); in the assay on CCRF-CEM, 14.4 µM (inactive); in the assay with SF-539, > 100 µM (inactive). Besides, the GI50 in the assay on NCI-H460 is 38.5 µM (inactive); in the assay on CAKI-1, > 100 µM (inactive); in the assay on SK-OV-3, > 100 µM (inactive); in the assay with OVCAR-5, > 100 µM (inactive); with SW-620, 40.9 µM (inactive); with NCI-H522 it was 30.5 µM (inactive). Moreover, the GI50 in the assay with SNB-75 is > 100 µM (inactive); in the assay on HT-29, > 100 µM (inactive); with SR, 0.0357 µM (active); with UACC-62, 42.2 µM (inactive).
Consider `CN(C)c1ccc(/C=c2\sc3nnc(-c4ccco4)n3c2=O)cc1`, for which the GI50 with UACC-257 is 16.7 µM (inactive); with U-251, 57.8 µM (inactive); in the assay on NCI-H226, > 100 µM (inactive); in the assay on Malme-3M, > 100 µM (inactive); in the assay on SK-MEL-28, > 100 µM (inactive); in the assay with RPMI-8226, > 100 µM (inactive). The GI50 in the assay with CCRF-CEM, in the assay with SF-539, in the assay with NCI-H460, with CAKI-1, with SK-OV-3 and with OVCAR-5 was > 100 µM (inactive) each time. For the same compound, the GI50 was > 100 µM (inactive) in the assay on SW-620, > 100 µM (inactive) with NCI-H522, 31.6 µM (inactive) with SNB-75 and > 100 µM (inactive) in the assay with UACC-62.
For the compound `O=C1CSc2ccncc2N1`, the GI50 in the assay on UACC-257, with U-251, in the assay with NCI-H226, with Malme-3M, with SK-MEL-28 and in the assay with CCRF-CEM was > 100 µM (inactive) each time. Besides, the GI50 in the assay with SF-539, in the assay on NCI-H460, in the assay with CAKI-1, in the assay with OVCAR-5, in the assay with SW-620 and in the assay with SNB-75 was > 100 µM (inactive) each time. Moreover, the GI50 in the assay on HT-29, in the assay with SR and in the assay on UACC-62 was > 100 µM (inactive) each time.
As for `OCC(CO)C1c2cccc3ccc4cccc1c4c23`, the GI50 was > 100 µM (inactive) with UACC-257; > 100 µM (inactive) in the assay with U-251; 67.5 µM (inactive) with NCI-H226; > 100 µM (inactive) in the assay with Malme-3M; > 100 µM (inactive) in the assay with SK-MEL-28; > 100 µM (inactive) in the assay on RPMI-8226. Also, the GI50 in the assay with CCRF-CEM, in the assay with SF-539, in the assay with NCI-H460, in the assay on CAKI-1, with SK-OV-3 and in the assay on OVCAR-5 was > 100 µM (inactive) throughout. For the same compound, the GI50 in the assay with SW-620 was > 100 µM (inactive); in the assay on SNB-75, 54.1 µM (inactive); with HT-29 it was > 100 µM (inactive); in the assay with SR it was > 100 µM (inactive); with UACC-62, > 100 µM (inactive).
Take `Nc1nc(NCCO)c(N=O)c(=O)[nH]1`: the GI50 in the assay with UACC-257, in the assay on U-251, in the assay on NCI-H226, with Malme-3M, in the assay on SK-MEL-28 and in the assay on RPMI-8226 was > 100 µM (inactive) throughout. For the same compound, the GI50 in the assay with CCRF-CEM, in the assay on SF-539, in the assay on NCI-H460, with CAKI-1, in the assay with SK-OV-3 and in the assay with OVCAR-5 was > 100 µM (inactive) each time. Besides, the GI50 in the assay on SW-620, with NCI-H522, in the assay on SNB-75, in the assay with HT-29 and with UACC-62 was > 100 µM (inactive) in each case.
Turning to `NC(=O)NNC(=O)NC12CC3CC(CC(C3)C1)C2`, the GI50 in the assay on UACC-257, in the assay on U-251, with NCI-H226, in the assay with Malme-3M, in the assay on SK-MEL-28 and with CCRF-CEM was > 100 µM (inactive) in each case. The GI50 in the assay on SF-539, in the assay on NCI-H460, in the assay on CAKI-1, with SK-OV-3, in the assay on OVCAR-5 and in the assay with SW-620 was > 100 µM (inactive) each time. Also, the GI50 in the assay with NCI-H522, in the assay on SNB-75, with HT-29 and in the assay with UACC-62 was > 100 µM (inactive) throughout.
Turning to `CCOC(=O)C12CCCC1(O)N(NC(=O)c1ccccc1)C(C)=C2C(=O)OC` (configuration not stated), the GI50 in the assay with UACC-257, with U-251, in the assay with NCI-H226, in the assay with Malme-3M, in the assay on RPMI-8226 and in the assay with CCRF-CEM was > 100 µM (inactive) in each case. Further, the GI50 in the assay with SF-539, in the assay on NCI-H460, in the assay with CAKI-1, in the assay with SK-OV-3, with OVCAR-5 and in the assay on SW-620 was > 100 µM (inactive) each time. Also, the GI50 with NCI-H522, in the assay on HT-29 and with UACC-62 was > 100 µM (inactive) each time.
As for `CC/C(=N\NS(=O)(=O)c1ccccc1)c1ccccc1`, the GI50 in the assay on UACC-257, in the assay on U-251, with NCI-H226, with Malme-3M, with SK-MEL-28 and with RPMI-8226 was > 100 µM (inactive) in each case. Also, the GI50 with CCRF-CEM, in the assay on SF-539, with NCI-H460, with CAKI-1, in the assay on SK-OV-3 and in the assay with OVCAR-5 was > 100 µM (inactive) each time. Further, the GI50 in the assay with SW-620, in the assay on SNB-75, in the assay with HT-29, in the assay with SR and with UACC-62 was > 100 µM (inactive) throughout.
Regarding `Cc1cc(C)nc(NS(=O)(=O)c2ccc(NC(=O)c3ccc(Cl)c4c(Nc5ccc(S(=O)(=O)Nc6nc(C)cc(C)n6)cc5)c5ccccc5nc34)cc2)n1`, the GI50 in the assay on UACC-257 is 27.7 µM (inactive); in the assay on U-251, 3.24 µM (inactive); in the assay with Malme-3M it was 14.4 µM (inactive); in the assay on SK-MEL-28, 4.28 µM (inactive); with RPMI-8226 it was 3.72 µM (inactive); in the assay on CCRF-CEM, 4.09 µM (inactive). For the same compound, the GI50 in the assay on SF-539 is 2.22 µM (inactive); with NCI-H460 it was 17 µM (inactive); in the assay on CAKI-1 it was 42.3 µM (inactive); with SK-OV-3 it was 13.7 µM (inactive); with OVCAR-5, 15.7 µM (inactive); in the assay with SW-620 it was 18.2 µM (inactive). Also, the GI50 with SNB-75 is 21.3 µM (inactive); in the assay with HT-29, 31.7 µM (inactive); in the assay on UACC-62 it was 2.04 µM (inactive).
As to `COc1ccc2[nH]c3c(cnn4cnnc34)c2c1`, the GI50 in the assay on UACC-257, with U-251, in the assay with Malme-3M, in the assay on SK-MEL-28, with RPMI-8226 and in the assay on CCRF-CEM was > 100 µM (inactive) throughout. For the same compound, the GI50 with SF-539, in the assay on NCI-H460, in the assay on CAKI-1, in the assay with SK-OV-3, in the assay on OVCAR-5 and in the assay on SW-620 was > 100 µM (inactive) each time. Moreover, the GI50 in the assay with NCI-H522, in the assay on SNB-75, in the assay with HT-29 and in the assay with UACC-62 was > 100 µM (inactive) throughout.
As to `COC(=O)C1=CO[C@@H](C)[C@@H]2Cn3ccc4c5ccccc5nc-4c3C[C@H]12` [ALSTONINE HYDROCHLORIDE], the GI50 with UACC-257 was > 100 µM (inactive); in the assay with U-251, > 100 µM (inactive); in the assay with NCI-H226, > 100 µM (inactive); with Malme-3M, > 100 µM (inactive); in the assay on SK-MEL-28, > 100 µM (inactive); with RPMI-8226, 84.3 µM (inactive). Further, the GI50 in the assay on CCRF-CEM, in the assay with SF-539, in the assay on NCI-H460, in the assay on SK-OV-3, in the assay on OVCAR-5 and with SW-620 was > 100 µM (inactive) in each case. The GI50 was 51.6 µM (inactive) in the assay on NCI-H522, > 100 µM (inactive) with SNB-75, > 100 µM (inactive) in the assay on HT-29 and > 100 µM (inactive) in the assay with UACC-62.

The values above are taken from ChEMBL document CHEMBL1201862, “PubChem BioAssay data set” (2004).
